Data: US6737383B1, “Herbicidal oxadiazolidines” (priority 1999, dated 2004)

What was measured:
[1] = tested on: pigweed; test: Test B pre/postemergence pigweed; assay type: in vivo, Amaranthus retroflexus
Procedure, shortened: (§1)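 Herbicidal effect was estimated by eye on a ten-point control scale after plants spent twelve to sixteen days in a greenhouse following soil or foliar treatment. Foliar sprays targeted plants at one to four leaves; all doses were formulated in a non-phytotoxic solvent with surfactant.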

[2] = tested on: rape; test: Test B pre/postemergence rape; assay type: in vivo, Brassica napus
Procedure, shortened: as §1

[3] = tested on: bedstraw; test: Test B pre/postemergence bedstraw; assay type: in vivo, Galium aparine
Procedure, shortened: as §1

[4] = tested on: corn; test: Test B pre/postemergence corn; assay type: in vivo, Zea mays
Procedure, shortened: as §1

[5] = tested on: rice; test: Test B flood test rice; assay type: in vivo, Oryza sativa
Procedure, shortened: (§2)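 Flood test on plants grown to the 2-leaf stage; treated plants kept in greenhouse twelve to sixteen days, then visually rated against controls on a 0 (no effect) to 10 (complete control) scale.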

[6] = tested on: smallflower flatsedge; test: Test B flood test smallflower flatsedge; assay type: in vivo, Cyperus difformis
Procedure, shortened: as §2

[7] = tested on: velvetleaf; test: Test B pre/postemergence velvetleaf; assay type: in vivo, Abutilon theophrasti
Procedure, shortened: as §1

[8] = tested on: purple nutsedge; test: Test B pre/postemergence purple nutsedge; assay type: in vivo, Cyperus rotundus
Procedure, shortened: as §1

[9] = tested on: wheat; test: Test B pre/postemergence wheat; assay type: in vivo, Triticum aestivum
Procedure, shortened: as §1

[10] = tested on: surinam grass; test: Test B pre/postemergence surinam grass; assay type: in vivo, Brachiaria decumbens
Procedure, shortened: as §1

[11] = tested on: wild oat; test: Test B pre/postemergence wild oat; assay type: in vivo, Avena fatua
Procedure, shortened: as §1

[12] = tested on: bamyardgrass; test: Test B flood test barnyardgrass; assay type: in vivo, Echinochloa crus-galli
Procedure, shortened: as §2

[13] = tested on: blackgrass; test: Test B pre/postemergence blackgrass; assay type: in vivo, Alopecurus myosuroides
Procedure, shortened: as §1

[14] = tested on: cocklebur; test: Test B pre/postemergence cocklebur; assay type: in vivo, Xanthium strumarium
Procedure, shortened: as §1

[15] = tested on: morningglory; test: Test B pre/postemergence morningglory; assay type: in vivo, Ipomoea hederacea
Procedure, shortened: as §1

[16] = tested on: duck salad; test: Test B flood test duck salad; assay type: in vivo, Heteranthera limosa
Procedure, shortened: as §2

[17] = Postemergence, Rate 31 g/ha, visual rating, scale 0 to 10 (0 no effect, 10 complete control)
[18] = Preemergence, Rate 31 g/ha, visual rating, scale 0 to 10 (0 no effect, 10 complete control)
[19] = Preemergence, Rate 62 g/ha, scale of 0 to 10 where 0 is no effect and 10 is complete control
[20] = Rate 16 g/ha, Postemergence, scale 0 to 10, 0 no effect, 10 complete control
[21] = Rate 16 g/ha, Preemergence, scale 0 to 10, 0 no effect, 10 complete control
[22] = Rate 62 g/ha, Postemergence, scale 0 to 10 (0 no effect, 10 complete control)
[23] = Rate 125 g/ha, Postemergence, scale of 0 to 10 where 0 is no effect and 10 is complete control
[24] = Rate 125 g/ha, Preemergence, scale of 0 to 10 where 0 is no effect and 10 is complete control
[25] = Rate 16 g/ha, head printed Pre-emergence (flood test species), scale 0 to 10, 0 no effect, 10 complete control
[26] = Rate 31 g/ha, Pre-emergence section (flood test species), scale 0 to 10
[27] = Rate 62 g/ha, headed Pre-emergence (flood test species), scale 0 to 10 (0 no effect, 10 complete control)
[28] = Rate 125 g/ha, Pre-emergence, flood test species, scale 0 to 10 where 0 is no effect and 10 is complete control
[29] = Rate 250 g/ha, Pre-emergence, flood-test species, scale 0 to 10, 0 is no effect, 10 is complete control
[30] = Rate 500 g/ha, Pre-emergence, flood test species, scale 0 to 10 (0 no effect, 10 complete control)

C=CCCCn1c(=O)on(C(=O)N(c2ccc(F)cc2)C(C)C)c1=O [Compound 291]
Redroot pigweed plant response rating [1, 17]: 0 | Redroot pigweed plant response rating [1, 18]: 0 | Redroot pigweed plant response rating [1, 19]: 0 | Redroot pigweed plant response rating [1, 20]: 0 | Redroot pigweed plant response rating [1, 21]: 0 | Redroot pigweed plant response rating [1, 22]: 0 | Redroot pigweed plant response rating [1, 23]: 0 | Redroot pigweed plant response rating [1, 24]: 0 | Rape plant response rating [2, 17]: 0 | Rape plant response rating [2, 18]: 0 | Rape plant response rating [2, 19]: 0 | Rape plant response rating [2, 20]: 0 | Rape plant response rating [2, 21]: 0 | Rape plant response rating [2, 22]: 0 | Rape plant response rating [2, 23]: 1 | Rape plant response rating [2, 24]: 0 | Bedstraw plant response rating [3, 17]: 0 | Bedstraw plant response rating [3, 18]: 0 | Bedstraw plant response rating [3, 19]: 0 | Bedstraw plant response rating [3, 20]: 0 | Bedstraw plant response rating [3, 21]: 0 | Bedstraw plant response rating [3, 22]: 0 | Bedstraw plant response rating [3, 23]: 3 | Bedstraw plant response rating [3, 24]: 0 | Corn plant response rating [4, 17]: 0 | Corn plant response rating [4, 18]: 0 | Corn plant response rating [4, 19]: 0 | Corn plant response rating [4, 20]: 0 | Corn plant response rating [4, 21]: 0 | Corn plant response rating [4, 22]: 0 | Corn plant response rating [4, 23]: 0 | Corn plant response rating [4, 24]: 0 | Rice plant response rating [5, 25]: 0 | Rice plant response rating [5, 26]: 0 | Rice plant response rating [5, 27]: 0 | Rice plant response rating [5, 28]: 2 | Rice plant response rating [5, 29]: 0 | Rice plant response rating [5, 30]: 0 | S. Flatsedge plant response rating [6, 25]: 0 | S. Flatsedge plant response rating [6, 26]: 0 | S. Flatsedge plant response rating [6, 27]: 0 | S. Flatsedge plant response rating [6, 28]: 0 | S. Flatsedge plant response rating [6, 29]: 0 | S. Flatsedge plant response rating [6, 30]: 0 | Velvetleaf plant response rating [7, 17]: 0 | Velvetleaf plant response rating [7, 18]: 0 | Velvetleaf plant response rating [7, 19]: 0 | Velvetleaf plant response rating [7, 20]: 0 | Velvetleaf plant response rating [7, 21]: 0 | Velvetleaf plant response rating [7, 22]: 0 | Velvetleaf plant response rating [7, 23]: 0 | Velvetleaf plant response rating [7, 24]: 0 | Nutsedge plant response rating [8, 17]: 0 | Nutsedge plant response rating [8, 18]: 0 | Nutsedge plant response rating [8, 19]: 0 | Nutsedge plant response rating [8, 20]: 0 | Nutsedge plant response rating [8, 21]: 0 | Nutsedge plant response rating [8, 22]: 0 | Nutsedge plant response rating [8, 23]: 0 | Nutsedge plant response rating [8, 24]: 0 | Wheat plant response rating [9, 17]: 0 | Wheat plant response rating [9, 18]: 0 | Wheat plant response rating [9, 19]: 0 | Wheat plant response rating [9, 20]: 0 | Wheat plant response rating [9, 21]: 0 | Wheat plant response rating [9, 22]: 0 | Wheat plant response rating [9, 23]: 0 | Wheat plant response rating [9, 24]: 0 | B. signalgrass plant response rating [10, 17]: 0 | B. signalgrass plant response rating [10, 18]: 0 | B. signalgrass plant response rating [10, 19]: 0 | B. signalgrass plant response rating [10, 20]: 0 | B. signalgrass plant response rating [10, 21]: 0 | B. signalgrass plant response rating [10, 22]: 0 | B. signalgrass plant response rating [10, 23]: 0 | B. signalgrass plant response rating [10, 24]: 3 | Wild oats plant response rating [11, 17]: 0 | Wild oats plant response rating [11, 18]: 0 | Wild oats plant response rating [11, 19]: 0 | Wild oats plant response rating [11, 20]: 0 | Wild oats plant response rating [11, 21]: 0 | Wild oats plant response rating [11, 22]: 0 | Wild oats plant response rating [11, 23]: 0 | Barnyardgrass plant response rating [12, 25]: 0 | Barnyardgrass plant response rating [12, 26]: 2 | Barnyardgrass plant response rating [12, 27]: 2 | Barnyardgrass plant response rating [12, 28]: 4 | Barnyardgrass plant response rating [12, 29]: 4 | Barnyardgrass plant response rating [12, 30]: 6 | Blackgrass plant response rating [13, 17]: 0 | Blackgrass plant response rating [13, 18]: 0 | Blackgrass plant response rating [13, 19]: 0 | Blackgrass plant response rating [13, 20]: 0 | Blackgrass plant response rating [13, 21]: 0 | Blackgrass plant response rating [13, 22]: 1 | Blackgrass plant response rating [13, 23]: 2 | Blackgrass plant response rating [13, 24]: 8 | Cocklebur plant response rating [14, 17]: 0 | Cocklebur plant response rating [14, 18]: 0 | Cocklebur plant response rating [14, 19]: 0 | Cocklebur plant response rating [14, 20]: 0 | Cocklebur plant response rating [14, 21]: 0 | Cocklebur plant response rating [14, 22]: 0 | Cocklebur plant response rating [14, 23]: 0 | Cocklebur plant response rating [14, 24]: 0 | Morningglory plant response rating [15, 17]: 1 | Morningglory plant response rating [15, 18]: 0 | Morningglory plant response rating [15, 19]: 0 | Morningglory plant response rating [15, 20]: 1 | Morningglory plant response rating [15, 21]: 0 | Morningglory plant response rating [15, 22]: 4 | Morningglory plant response rating [15, 23]: 4 | Morningglory plant response rating [15, 24]: 0 | Ducksalad plant response rating [16, 25]: 0 | Ducksalad plant response rating [16, 26]: 0 | Ducksalad plant response rating [16, 27]: 0 | Ducksalad plant response rating [16, 28]: 0 | Ducksalad plant response rating [16, 29]: 0 | Ducksalad plant response rating [16, 30]: 0
